Data: PubChem BioAssay AID250 (DTP/NCI, 2004)
Values joined by “and” are separate entries in the source; they are usually repeats but may differ in a detail not shown here. Identical values can stand only once. Inconclusive results and toxic doses are left out.

Test system: BDF1 mice, L1210 leukemia sc, survival T/C
Assay: NCI In Vivo Anticancer Drug Screen. Data for tumor model L1210 Leukemia (subcutaneous) in B6D2F1 (BDF1) mice
Settings: endpoint: median survival time, higher = longer survival
In short: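 Mice carrying transplanted tumors received test compounds, and survival or tumor size was measured. Values are the treated-group measurement (T) divided by that of the vehicle-treated control group (C).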

SMILES: S=c1nc[nH]c2nc[nH]c12
- T/C (dose: 60.0 mg/kg/injection, schedule: Q01DX001 (ip), vehicle: saline): 100 % of control
- T/C (dose: 64.8 mg/kg/injection, schedule: Q01DX Z (sc), vehicle: other): 150 % of control
- T/C (dose: 65.0 mg/kg/injection, schedule: Q01DX001 (sc), vehicle: other): 105 % of control and 115 % of control
- T/C (dose: 65.0 mg/kg/injection, schedule: Q01DX Z (oral), vehicle: methylcellulose (MC)): 104 % of control and 115 % of control
- T/C (dose: 65.0 mg/kg/injection, schedule: Q01DX Z (sc), vehicle: methylcellulose (MC)): 154 % of control
- T/C (dose: 65.0 mg/kg/injection, schedule: Q02DX Z (sc), vehicle: other): 105 % of control and 115 % of control
- T/C (dose: 65.0 mg/kg/injection, schedule: Q07DX Z (sc), vehicle: other): 105 % of control and 115 % of control
- T/C (dose: 65.0 mg/kg/injection, schedule: Q## X Z (sc), vehicle: other): 100 % of control
- T/C (dose: 78.0 mg/kg/injection, schedule: Q01DX Z (oral), vehicle: methylcellulose (MC)): 113 % of control
- T/C (dose: 78.0 mg/kg/injection, schedule: Q01DX Z (sc), vehicle: other): 155 % of control
- T/C (dose: 80.0 mg/kg/injection, schedule: Q01DX009 (ip), vehicle: other): 150 % of control
- T/C (dose: 80.0 mg/kg/injection, schedule: Q01DX009 (sc), vehicle: other): 155 % of control
- T/C (dose: 90.0 mg/kg/injection, schedule: Q01DX001 (ip), vehicle: saline): 110 % of control
- T/C (dose: 108.0 mg/kg/injection, schedule: Q01DX001 (sc), vehicle: other): 115 % of control
- T/C (dose: 108.0 mg/kg/injection, schedule: Q01DX Z (ip), vehicle: other): 155 % of control
- T/C (dose: 108.0 mg/kg/injection, schedule: Q01DX Z (oral), vehicle: methylcellulose (MC)): 105 % of control and 118 % of control
- T/C (dose: 108.0 mg/kg/injection, schedule: Q02DX Z (sc), vehicle: other): 152 % of control
- T/C (dose: 108.0 mg/kg/injection, schedule: Q07DX Z (sc), vehicle: other): 115 % of control
- T/C (dose: 108.0 mg/kg/injection, schedule: Q## X Z (sc), vehicle: other): 115 % of control
- T/C (dose: 120.0 mg/kg/injection, schedule: Q01DX001 (ip), vehicle: saline): 110 % of control
- T/C (dose: 130.0 mg/kg/injection, schedule: Q01DX Z (sc), vehicle: methylcellulose (MC)): 109 % of control
- T/C (dose: 130.0 mg/kg/injection, schedule: Q01DX Z (sc), vehicle: other): 150 % of control
- T/C (dose: 160.0 mg/kg/injection, schedule: Q01DX009 (sc), vehicle: other): 102 % of control
- T/C (dose: 180.0 mg/kg/injection, schedule: Q01DX001 (sc), vehicle: other): 121 % of control
- T/C (dose: 180.0 mg/kg/injection, schedule: Q01DX Z (oral), vehicle: methylcellulose (MC)): 150 % of control
- T/C (dose: 180.0 mg/kg/injection, schedule: Q07DX Z (sc), vehicle: other): 121 % of control
- T/C (dose: 200.0 mg/kg/injection, schedule: Q01DX012 (ip), vehicle: other): 100 % of control
- T/C (dose: 216.0 mg/kg/injection, schedule: Q01DX Z (oral), vehicle: methylcellulose (MC)): 109 % of control
- T/C (dose: 216.0 mg/kg/injection, schedule: Q01DX Z (sc), vehicle: methylcellulose (MC)): 109 % of control
- T/C (dose: 216.0 mg/kg/injection, schedule: Q01DX Z (sc), vehicle: other): 150 % of control
- T/C (dose: 240.0 mg/kg/injection, schedule: Q01DX001 (ip), vehicle: saline): 110 % of control
- T/C (dose: 300.0 mg/kg/injection, schedule: Q01DX Z (oral), vehicle: methylcellulose (MC)): 150 % of control and 154 % of control
- T/C (dose: 300.0 mg/kg/injection, schedule: Q01DX Z (sc), vehicle: methylcellulose (MC)): 120 % of control
- T/C (dose: 300.0 mg/kg/injection, schedule: Q07DX Z (sc), vehicle: other): 121 % of control
- T/C (dose: 300.0 mg/kg/injection, schedule: Q## X Z (sc), vehicle: other): 157 % of control
- T/C (dose: 360.0 mg/kg/injection, schedule: Q01DX Z (oral), vehicle: methylcellulose (MC)): 122 % of control
- T/C (dose: 500.0 mg/kg/injection, schedule: Q01DX Z (oral), vehicle: other): 120 % of control
